In brackets after ≈: the same amount, converted by molar mass.
Legend:
Histone deacetylase 11 = target: T1, Histone deacetylase 11 (Homo sapiens, UniProt Q96DB2); test: Inhibition of full length N-terminal GST-tagged recombinant human HDAC11 expressed in baculovirus using Arg-His-Lys-Lys (Ac) as substrate after 1 hr by fluorescence plate reader analysis
T1 sequence (Q96DB2 whole entry): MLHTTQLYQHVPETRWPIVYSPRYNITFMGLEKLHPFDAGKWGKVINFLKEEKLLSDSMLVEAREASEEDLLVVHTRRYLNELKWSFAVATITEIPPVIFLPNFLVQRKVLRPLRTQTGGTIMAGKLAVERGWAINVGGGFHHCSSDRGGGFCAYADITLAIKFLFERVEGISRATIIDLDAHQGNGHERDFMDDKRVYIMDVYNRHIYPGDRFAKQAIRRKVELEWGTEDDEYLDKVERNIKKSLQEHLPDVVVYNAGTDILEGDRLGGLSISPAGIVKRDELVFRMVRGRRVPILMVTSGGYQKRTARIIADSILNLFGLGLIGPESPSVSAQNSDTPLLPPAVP

[1] = Kinetic solubility of the compound in potassium phosphate buffer at pH 6.8 by turbidometric analysis; format: physicochemical; conditions: read-out: Kinetic_solubility
Histone deacetylase 5 = Histone deacetylase 5 (Homo sapiens, UniProt Q9UQL6); test: Inhibition of C-terminal His6x-tagged recombinant human HDAC5 (657 to 1123) expressed in baculovirus using acetyl-Lys(trifluoroacetyl)-AMC as substrate after 1 hr by fluorescence plate reader analysis
Homo sapiens = species on record: Homo sapiens; test: Selectivity ratio of IC50 for full length C-terminal His6x-tagged recombinant human HDAC8 to IC50 for N-terminal GST-tagged recombinant HDAC6 (unknown origin)
Histone deacetylase 2 = Histone deacetylase 2 (Homo sapiens, UniProt Q92769); test: Inhibition of full length C-terminal His6x-tagged recombinant human HDAC2 expressed in baculovirus using Arg-His-Lys-Lys (Ac) as substrate after 2 hrs by fluorescence plate reader analysis
[2] = Permeability in human Caco2 cells at pH 7.4; format: ADME, cell-based; conditions: Caco-2, pH 7.4, read-out: permeability
[3] = target: 72 kDa type IV collagenase (Homo sapiens) (UniProt P08253); test: Inhibition of MMP2 (unknown origin)
[4] = Aqueous thermodynamic solubility of the compound in potassium phosphate monobasic buffer at pH 7.5 after 24 hrs by LC-MS analysis; format: physicochemical; conditions: read-out: Therm_solubility
[5] = Efflux ratio of permeability in human Caco2 cells at pH 7.4; format: ADME, cell-based; conditions: Caco-2, pH 7.4
[6] = target: Matrix metalloproteinase-9 (Homo sapiens) (UniProt P14780); test: Inhibition of MMP9 (unknown origin)
[7] = target: T2, Matrix metalloproteinase-17 (Homo sapiens) (UniProt Q9ULZ9); test: Inhibition of MMP4 (unknown origin)
T2 sequence (whole entry): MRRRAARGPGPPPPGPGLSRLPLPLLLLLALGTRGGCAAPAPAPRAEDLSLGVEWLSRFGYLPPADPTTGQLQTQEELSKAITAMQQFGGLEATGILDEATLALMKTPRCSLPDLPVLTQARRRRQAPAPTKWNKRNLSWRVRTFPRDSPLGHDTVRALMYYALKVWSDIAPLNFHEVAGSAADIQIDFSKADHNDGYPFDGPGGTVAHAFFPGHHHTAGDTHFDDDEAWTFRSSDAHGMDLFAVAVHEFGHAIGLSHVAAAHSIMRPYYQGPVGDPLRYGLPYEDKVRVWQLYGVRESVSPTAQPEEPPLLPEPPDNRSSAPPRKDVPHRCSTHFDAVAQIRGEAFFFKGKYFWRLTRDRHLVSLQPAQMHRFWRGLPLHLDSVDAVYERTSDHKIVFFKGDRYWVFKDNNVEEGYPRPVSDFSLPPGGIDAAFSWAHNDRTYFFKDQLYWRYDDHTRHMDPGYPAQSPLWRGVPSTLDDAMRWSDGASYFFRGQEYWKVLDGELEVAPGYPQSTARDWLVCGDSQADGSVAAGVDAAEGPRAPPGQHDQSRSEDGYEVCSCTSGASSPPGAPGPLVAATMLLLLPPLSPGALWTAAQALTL

Chain of Histone deacetylase 2 (Q92769 whole entry): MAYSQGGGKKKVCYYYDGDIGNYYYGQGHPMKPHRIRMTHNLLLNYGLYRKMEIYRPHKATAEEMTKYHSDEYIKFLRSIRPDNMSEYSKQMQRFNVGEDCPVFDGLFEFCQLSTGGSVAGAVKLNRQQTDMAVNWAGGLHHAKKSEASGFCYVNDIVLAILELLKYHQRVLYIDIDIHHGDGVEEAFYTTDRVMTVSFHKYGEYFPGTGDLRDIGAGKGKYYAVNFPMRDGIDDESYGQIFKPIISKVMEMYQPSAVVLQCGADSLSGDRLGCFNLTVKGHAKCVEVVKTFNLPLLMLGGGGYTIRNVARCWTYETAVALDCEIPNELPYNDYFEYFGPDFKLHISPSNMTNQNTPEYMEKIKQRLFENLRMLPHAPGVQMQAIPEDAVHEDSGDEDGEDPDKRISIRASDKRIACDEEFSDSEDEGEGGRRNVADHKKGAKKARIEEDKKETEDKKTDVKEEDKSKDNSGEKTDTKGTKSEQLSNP
Chain of Histone deacetylase 5 (Q9UQL6 whole entry): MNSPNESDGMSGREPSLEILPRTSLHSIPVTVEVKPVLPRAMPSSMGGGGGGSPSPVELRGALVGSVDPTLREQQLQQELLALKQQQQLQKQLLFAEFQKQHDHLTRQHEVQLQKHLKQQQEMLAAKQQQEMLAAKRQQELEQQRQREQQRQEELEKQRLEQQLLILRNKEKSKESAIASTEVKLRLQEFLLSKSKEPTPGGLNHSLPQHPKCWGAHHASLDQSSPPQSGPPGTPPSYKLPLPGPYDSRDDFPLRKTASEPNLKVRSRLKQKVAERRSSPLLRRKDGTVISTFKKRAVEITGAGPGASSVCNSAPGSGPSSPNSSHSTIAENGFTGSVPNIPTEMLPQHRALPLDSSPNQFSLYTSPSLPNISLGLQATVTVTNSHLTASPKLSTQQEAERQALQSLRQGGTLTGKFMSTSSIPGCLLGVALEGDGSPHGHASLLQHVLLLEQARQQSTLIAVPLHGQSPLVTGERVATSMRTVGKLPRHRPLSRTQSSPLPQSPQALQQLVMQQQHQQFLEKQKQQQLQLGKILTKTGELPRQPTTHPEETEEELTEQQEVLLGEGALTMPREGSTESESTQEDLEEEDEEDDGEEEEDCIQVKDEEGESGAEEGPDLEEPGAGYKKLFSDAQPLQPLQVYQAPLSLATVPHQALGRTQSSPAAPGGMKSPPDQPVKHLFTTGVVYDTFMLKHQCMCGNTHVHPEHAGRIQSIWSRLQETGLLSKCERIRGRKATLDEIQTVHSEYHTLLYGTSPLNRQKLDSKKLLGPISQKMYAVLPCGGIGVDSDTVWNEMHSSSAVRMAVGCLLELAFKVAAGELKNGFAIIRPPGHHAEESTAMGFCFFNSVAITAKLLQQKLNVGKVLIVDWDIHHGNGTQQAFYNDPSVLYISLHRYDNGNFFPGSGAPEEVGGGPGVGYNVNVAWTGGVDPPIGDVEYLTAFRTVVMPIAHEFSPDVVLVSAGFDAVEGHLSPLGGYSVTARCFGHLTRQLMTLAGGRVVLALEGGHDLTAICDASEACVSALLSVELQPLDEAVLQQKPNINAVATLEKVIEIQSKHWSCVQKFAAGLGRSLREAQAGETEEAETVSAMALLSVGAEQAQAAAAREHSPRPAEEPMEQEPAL
Chain of 72 kDa type IV collagenase (Homo sapiens) (P08253 110-660 limits assumed): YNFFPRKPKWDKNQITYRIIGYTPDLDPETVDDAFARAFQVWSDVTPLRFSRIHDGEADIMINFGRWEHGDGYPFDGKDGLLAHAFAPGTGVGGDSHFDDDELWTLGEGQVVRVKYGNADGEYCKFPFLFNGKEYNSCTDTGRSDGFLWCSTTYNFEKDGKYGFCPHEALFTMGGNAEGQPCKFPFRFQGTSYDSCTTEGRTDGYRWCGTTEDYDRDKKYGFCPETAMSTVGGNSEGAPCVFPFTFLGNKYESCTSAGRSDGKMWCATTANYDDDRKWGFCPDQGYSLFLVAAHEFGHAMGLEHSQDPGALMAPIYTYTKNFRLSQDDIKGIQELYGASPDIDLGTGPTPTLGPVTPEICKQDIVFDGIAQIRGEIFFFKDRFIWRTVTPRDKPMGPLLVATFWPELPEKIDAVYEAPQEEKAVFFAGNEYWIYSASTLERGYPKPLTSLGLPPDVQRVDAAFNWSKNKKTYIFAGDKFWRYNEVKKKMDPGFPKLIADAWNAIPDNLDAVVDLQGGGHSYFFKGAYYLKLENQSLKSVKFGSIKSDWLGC
Chain of Matrix metalloproteinase-9 (Homo sapiens) (P14780 whole entry): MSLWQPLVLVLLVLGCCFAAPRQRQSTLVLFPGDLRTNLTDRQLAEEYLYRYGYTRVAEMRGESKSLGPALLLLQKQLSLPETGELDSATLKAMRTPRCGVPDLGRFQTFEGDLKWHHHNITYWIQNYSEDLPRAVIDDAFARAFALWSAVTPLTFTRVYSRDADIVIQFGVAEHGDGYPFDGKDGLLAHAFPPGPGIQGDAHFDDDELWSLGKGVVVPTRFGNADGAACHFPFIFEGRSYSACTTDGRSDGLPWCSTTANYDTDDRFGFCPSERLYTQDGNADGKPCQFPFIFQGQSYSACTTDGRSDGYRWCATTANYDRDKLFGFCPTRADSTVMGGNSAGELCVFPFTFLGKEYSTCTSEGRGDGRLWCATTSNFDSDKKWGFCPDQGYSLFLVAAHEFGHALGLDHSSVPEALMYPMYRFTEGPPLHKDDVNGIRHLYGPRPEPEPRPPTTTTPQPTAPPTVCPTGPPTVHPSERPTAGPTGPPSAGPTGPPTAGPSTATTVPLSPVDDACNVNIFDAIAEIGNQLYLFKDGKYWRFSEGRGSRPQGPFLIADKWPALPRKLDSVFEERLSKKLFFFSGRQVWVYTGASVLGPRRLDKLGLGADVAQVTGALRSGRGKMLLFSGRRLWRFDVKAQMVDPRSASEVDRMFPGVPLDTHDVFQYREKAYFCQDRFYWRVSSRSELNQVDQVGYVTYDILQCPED

IC50 (Histone deacetylase 11)	solubility kinetic [1]	IC50 (Histone deacetylase 5)	Ratio IC50 (Homo sapiens)	IC50 (Histone deacetylase 2)	Papp [2]	INH [3]	solubility thermodynamic at 24 h [4]	efflux ratio [5]	INH [6]	INH [7]	SMILES
> 50 µM	> 200 µM	> 50 µM	40	> 50 µM	–	–	–	–	–	–	Cn1cccc1C(=O)N1Cc2ccc(C(=O)NO)cc2C1
–	> 200 µM	3.3 µM	40	16 µM	–	–	–	–	–	–	Cn1cccc1C(=O)NCc1ccc(C(=O)NO)cc1
> 50 µM	> 200 µM	> 50 µM	40	> 50 µM	–	–	–	–	–	–	CC(C)(C)C(=O)N1CCc2cc(C(=O)NO)ccc2C1
> 50 µM	> 200 µM	> 50 µM	40	> 50 µM	–	–	–	–	–	–	CC(C)(C)C(=O)N1Cc2ccc(C(=O)NO)cc2C1
> 50 µM	> 200 µM	> 50 µM	–	> 50 µM	22 ×10⁻⁶ cm/s	> 100 µM	2000 µM (≈ 599 µg/mL)	1.5	> 100 µM	> 100 µM	Cn1cccc1C(=O)N1CCc2cc(C(=O)NO)ccc2C1
> 50 µM	> 200 µM	> 50 µM	40	> 50 µM	–	–	–	–	–	–	Cn1cccc1C(=O)N1CCCc2cc(C(=O)NO)ccc2C1
